Results on 6 compounds are retold here after US4236012A, “5-Phenethyl-2-oxazolidone derivatives and a process for producing the same” (Nippon Chemiphar Company, Limited, priority 1978, dated 1980).

Common to all, as to assay type: in vivo, dd Male mice
Experiment [1] deals with mice. The experiment is described as follows: Analgetic Effect on Acetic Acid-Induced Writhing Method. Particulars: Mus musculus, oral, 30 minutes before intraperitoneal 0.6% acetic acid, writhing within 20 minutes, Litchfield Wilcoxon method. On the procedure:
(2) Analgetic Effect on Acetic Acid-Induced Writhing Method:
dd Male mice weighing 18 to 22 g, each group consisting of ten animals were given an intraperitoneal injection of 0.6% acetic acid in a dosage of 0.1 ml/10 g per body weight. The number of writhing syndromes occurring within 20 minutes after the injection was observed. Thereafter, the mice were orally given the test compounds suspended in a 0.2% carboxymethylcellulose solution 30 minutes before the injection of acetic acid. The inhibitory percentage was estimated in comparison with a control in which only a 0.2% carboxymethylcellulose solution was given, and the ED50 values were calculated by the Litchfield Wilcoxon method.
A general note: An intraperitoneal irritant provokes the stretching counted in writhing tests.

Experiment [2] concerns mice. The experiment is described as follows: Muscular Relaxing Effect: Traction Test. Particulars: Mus musculus, oral, hind legs on wire within 5 seconds, maximum response over 15-180 minutes, Litchfield Wilcoxon method, read-out: ED50 Values, T.T (Traction Test). As for the experimental part: (§1) (1) Muscular Relaxing Effect:
(§2) dd Male mice weighing 18 to 22 g, one group consisting of ten animals were orally given the compounds (I) to (III) each suspended in a 0.2% carboxymethylcellulose solution in a dosage of 0.25 ml/10 g per body weight. Mephenesin and 5-(o-chlorobenzyl)-2-oxazoline were used as active placebos. The experiment was carried out according to the methods (a) to (c) as described below, and the ED50 values were calculated by the Litchfield Wilcoxon method, based on the maximum response in each dosage which was measured at intervals of 15, 30, 45, 60, 90, 120, 150 and 180 minutes after the administration of each of the test compounds.

For experiment [3], the system named is mice. The experiment is described as follows: Muscular Relaxing Effect: Rotarod Method. The settings on record: Mus musculus, oral, falling within 3 minutes from rod of 3 cm diameter at 10 rpm, maximum response over 15-180 minutes, Litchfield Wilcoxon method, read-out: ED50 Values, R.R (Rotarod Method). On the procedure:
as §1, §2
Mice were placed on Rotar Load (made by Natsume Seisakusho Co., Ltd.) having a diameter of 3 cm and rotating at a speed of 10 rpm, and their falling (occurring within 3 minutes) was observed.

For experiment [4], the system named is mice. The experiment is described as follows: Muscular Relaxing Effect: Inclined Plane Test. The settings on record: Mus musculus, oral, veneer inclined at 30 degrees and wire network at 60 degrees, maximum response over 15-180 minutes, Litchfield Wilcoxon method, read-out: ED50 Values, I.P (Inclined Plane Test). On the procedure:
as §1, §2
Mice were placed on veneer inclined at an angle of 30 degrees and on a wire network inclined at an angle of 60 degrees of which one mesh was 5 mm square, and the mice sliding down were considered as positive in comparison with their normal behavior.

Turning to `Cc1c(N(C)C)c(=O)n(-c2ccccc2)n1C` [Aminopyrine], in the experiment with mice [1], the ED50 (commonly the dose at which the effect has come halfway, by size or by number of responders) stood at 64 mg/kg.
For the compound `O=C1NCC(Cc2ccccc2Cl)O1` (centres unmarked) [Compound A, 5-(o-Chlorobenzyl)-2-oxazolidone, reference compound], the ED50 in the experiment on mice [1] came out at 40 mg/kg; in the experiment with mice [2], 390 mg/kg; in the experiment with mice [3] it was 210 mg/kg; with mice [4], 330 mg/kg.
For the compound `O=C1NCC(CCc2ccccc2)O1` (centres unmarked) [Compound I, 5-Phenethyl-2-oxazolidone], the values for the ED50 in the experiment on mice [2], in the experiment on mice [3] and in the experiment with mice [4] were 217 mg/kg, 196 mg/kg and 261 mg/kg, respectively.
The corresponding values for `O=C1NCC(CCc2ccccc2F)O1` (centres unmarked) [Compound II, 5-(o-Fluorophenethyl)-2-oxazolidone] are 230 mg/kg, 194 mg/kg and 297 mg/kg.
In the case of `O=C1NCC(CCc2ccccc2Cl)O1` (centres unmarked) [Compound III, 5-(o-Chlorophenethyl)-2-oxazolidone], the ED50 in the experiment on mice [1] was determined as 36 mg/kg; with mice [2], 225 mg/kg; with mice [3], 182 mg/kg; in the experiment on mice [4], 268 mg/kg.
With `Cc1ccccc1OCC(O)CO` (centres unmarked) [Mephenesin, reference compound], the ED50 with mice [2] was found to be 460 mg/kg; with mice [4], 470 mg/kg.
